Laboratory results published in patent US8940765B2, “N-linked quinolineamide M1 receptor positive allosteric modulators” (Merck Sharp & Dohme Corp., priority 2011, dated 2015).

molecular target: T1, acetylcholine muscarinic M1 receptor (Homo sapiens, UniProt P11229); assay: muscarinic FLIPR assay: intracellular calcium in CHOnfat/hM1 cells, potentiation of EC20 acetylcholine; format: cell-based; conditions: FLIPR Ca2+, 4 min preincubation, then EC20 acetylcholine (3 nM final), read-out: IP Value (inflection point)
T1 construct: expressed in transfected cells; host or cells: CHOnfat cells (CHO with NFAT reporter background) stably expressing hM1, Geneticin selection
T1 sequence (P11229 1-460): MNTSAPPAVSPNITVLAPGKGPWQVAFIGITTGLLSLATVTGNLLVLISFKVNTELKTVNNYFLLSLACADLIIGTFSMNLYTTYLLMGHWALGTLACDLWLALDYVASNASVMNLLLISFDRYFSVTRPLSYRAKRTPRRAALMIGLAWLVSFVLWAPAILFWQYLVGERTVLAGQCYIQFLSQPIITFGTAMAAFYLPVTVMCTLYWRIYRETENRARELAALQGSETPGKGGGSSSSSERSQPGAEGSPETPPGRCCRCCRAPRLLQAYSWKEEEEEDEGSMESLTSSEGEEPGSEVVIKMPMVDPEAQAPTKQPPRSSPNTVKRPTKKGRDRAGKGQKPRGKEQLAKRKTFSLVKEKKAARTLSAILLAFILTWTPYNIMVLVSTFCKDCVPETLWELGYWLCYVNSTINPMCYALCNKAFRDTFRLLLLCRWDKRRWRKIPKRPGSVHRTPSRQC
Description: The assay studies the effect of one or several concentrations of test compounds on basal or acetylcholine-stimulated Ca^2+ levels using FLIPR.
Compounds are prepared and subjected to a preincubation period of 4 min. Thereafter, a single EC20 concentration of acetylcholine is added to each well (3 nM final). The intracellular Ca^2+ level of each sample is measured and compared to an acetylcholine control to determine any modulatory activity.
Cells: CHOnfat/hM1, hM2, hM3 or hM4 cells are plated 24 hr before the assay at a density of 18,000 cells/well (100 μL) in a 384 well plate. CHOnfat/hM1 and CHOnfat/hM3 Growth Medium: 90% DMEM (Hi Glucose); 10% HI FBS; 2 mM L-glutamine; 0.1 mM NEAA; Pen-Strep; and 1 mg/ml Geneticin, are added. For M2Gqi5CHOnfat and M4Gqi5CHOnfat cells, an additional 600 ug/ml hygromycin is added.
Equipment: 384 well plate, 120 μL addition plate; 96-well Whatman 2 ml Uniplate Incubator, 37° C., 5% CO2; Skatron EMBLA-384 Plate Washer; Multimek Pipetting System; Genesis Freedom 200 System; Mosquito System; Temo Nanoliter Pipetting System; and FLIPR384 Fluorometric Imaging Plate Reader System are used.
Buffers. Assay Buffer: Hanks Balanced Salt Solution, with 20 mM Hepes, 2.5 mM Probenecid (Sigma P-8761) first dissolved in 1 N NaOH, 1% Bovine Serum Albumin (Sigma A-9647). Dye Loading Buffer: Assay Buffer plus 1% Fetal Bovine Serum and Fluo-4AM/Pluronic Acid Mixture. 2 mM Fluo-4AM ester stock in DMSO (Molecular Probes F-14202) Concentration of 2 μM in buffer for a final concentration of 1 μM in Assay. 20% Pluronic Acid Solution stock, with concentration of 0.04% in Buffer, 0.02% in Assay.
65 μl, of 2 mM Fluo-4AM are mixed with 130 μL of 20% Pluronic Acid. The resulting solution and 650 μL FBS is added to the assay buffer for a total volume of 65 mL. Positive Controls: 4-Br-A23187: 10 mM in DMSO; final concentration 10 μM. Acetylcholine: 10 mM in water, working stock at both 20 μM and 30 μM in assay buffer, final concentration of 10 μM. This is used to check the maximum stimulation of the CHOK1/hM1 cells. 20 μM (2×) acetylcholine is added in the preincubation part of the assay, and the 30 μM (3×) stock is added in the second part. (EC20)Acetylcholine: 10 mM in water, working stock of 9 nM (3×), and final concentration in assay is 3 nM. This is used after the preincubation with test compounds. Addition of the EC20 Acetylcholine to each well with a test compound will ascertain any modulator activity. 24 wells contain 3 nM Acetylcholine alone as a control.
Determining Activity of Putative Compounds:
Screening Plate: Compounds are titrated in 96-well plates (columns 2-11), 100% DMSO, started at a concentration of 15 mM (150× stock concentration), and 3-fold serial dilutions using Genesis Freedom200 System. Four 96-well plates are combined into a 384-well plate using Mosquito Nanoliter Pipetting System by transferring 1 μl of serial diluted compounds to each well, and 1 mM acetylcholine (100× stock concentration) were added as a control. Using Temo, 49 μl assay buffer is added to each well of the 384-well plate right before assay.
In a 96-well Whatman 2 ml Uniplate, 9 nM Acetylcholine (3×) is pipetted into wells corresponding to the screening compounds, and into control wells. The 30 μM acetylcholine control (3×) is added into control wells, and the 3× agonist plate is transferred into a 384 well plate.
Cells are washed three times with 100 μL of buffer, leaving 30 μL of buffer in each well. Using Multimek, 30 μl, of Dye Loading Buffer is added into each well and incubated at 37° C., 5% CO2 for up to one hr.
After […], the cells are washed three times with 100 μL of buffer, leaving 30 μL of buffer in each well. The cell plate, screening plate, and agonist addition plates are placed on the platform in the FLIPR and the door closed. A signal test to check background fluorescence and basal fluorescence signal is performed. Laser intensity is adjusted if necessary. […]

SMILES | EC50 [nM]
N#CC1(c2ccccn2)CCN(Cc2cc(C(=O)N[C@H]3CCCC[C@@H]3O)nc3ccccc23)CC1 [Example 1, 4-[(4-cyano-4-pyridin-2-ylpiperidin-1-yl)methyl]-N-[(1S,2S)-2-hydroxycyclohexyl]quinoline-2-carboxamide] | 54
Cn1cc(N2CCN(Cc3cc(C(=O)N[C@H]4CCCC[C@@H]4O)nc4ccccc34)CC2)cn1 [Example 2, N-[(1S,2S)-2-hydroxycyclohexyl]-4-{[4-(1-methyl-1H-pyrazol-4-yl)piperazin-1-yl]methyl}quinoline-2-carboxamide] | 369
Cc1ccnc(C2(C#N)CCN(Cc3cc(C(=O)N[C@H]4CCCC[C@@H]4O)nc4ccccc34)CC2)c1 [Example 3, 4-{[4-cyano-4-(4-methylpyridin-2-yl)piperidin-1-yl]methyl}-N-[(1S,2S)-2-hydroxycyclohexyl]quinoline-2-carboxamide] | 20
N#CC1(c2ccccc2)CCN(Cc2cc(C(=O)N[C@H]3CCCC[C@@H]3O)nc3ccccc23)CC1 [Example 4, 4-[(4-cyano-4-phenylpiperidin-1-yl)methyl]-N-[(1S,2S)-2-hydroxycyclohexyl]quinoline-2-carboxamide] | 325
N#CC1(c2ccccc2F)CCN(Cc2cc(C(=O)N[C@H]3CCCC[C@@H]3O)nc3ccccc23)CC1 [Example 5, 4-{[4-cyano-4-(2-fluorophenyl)piperidin-1-yl]methyl}-N-[(1S,2S)-2-hydroxycyclohexyl]quinoline-2-carboxamide] | 81
N#CC1(c2ccccc2Cl)CCN(Cc2cc(C(=O)N[C@H]3CCCC[C@@H]3O)nc3ccccc23)CC1 [Example 6, 4-{[4-(2-chlorophenyl)-4-cyanopiperidin-1-yl]methyl}-N-[(1S,2S)-2-hydroxycyclohexyl]quinoline-2-carboxamide] | 117
Cc1ccccc1C1(C#N)CCN(Cc2cc(C(=O)N[C@H]3CCCC[C@@H]3O)nc3ccccc23)CC1 [Example 7, 4-{[4-cyano-4-(2-methylphenyl)piperidin-1-yl]methyl}-N-[(1S,2S)-2-hydroxycyclohexyl]quinoline-2-carboxamide] | 136
Cc1ccnc(C2(C#N)CCN(Cc3cc(C(=O)N[C@H]4CCOC[C@@H]4O)nc4ccccc34)CC2)c1 [Example 8, 1,5-anhydro-3-{[(4-{[4-cyano-4-(4-methylpyridin-2-yl)piperidin-1-yl]methyl}quinolin-2-yl)carbonyl]amino}-2,3-dideoxy-L-threo-pentitol] | 27
N#CC1(c2cccnc2)CCN(Cc2cc(C(=O)N[C@H]3CCCC[C@@H]3O)nc3ccccc23)CC1 [Example 9, 4-[(4-cyano-4-pyridin-3-ylpiperidin-1-yl)methyl]-N-[(1S,2S)-2-hydroxycyclohexyl]quinoline-2-carboxamide] | 54
